This is an account of results in patent publication US20120101083A1, “S1P1 AGONISTS COMPRISING A BICYCLIC N-CONTAINING RING” (GLAXO GROUP LIMITED, priority 2009, published 2012).

Structures can show the parent of a compound that is named as a salt.

Assay [1] concerns the target T1, S1P1 receptor (S1P1 expressing RH7777 membranes) (Homo sapiens, UniProt P21453).
T1 construct: expressed in transfected cells; host or cells: RH7777 cells (membranes)
Kind of assay: S1P1 GTPγS assay. The assay is classed as biochemical. The note with it: tested in one of the above S1P1 assays (two GTPγS formats). In short, it runs like this:
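Membranes from RH7777 cells expressing human S1P1 (1.5 μg/well) precoupled 30 min on ice to WGA SPA beads in 20 mM HEPES pH 7.4, 10 mM MgCl2, 100 mM NaCl, with 10 μM GDP and 90 μg/ml saponin. [35S]-GTPγS 0.5 nM final added with compound; SPA signal read immediately.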

Assay [2] concerns the target T2, S1P1 (PathHunter CHO-K1 EDG1 β-Arrestin cell line) (Homo sapiens, UniProt P21453).
T2 construct: host or cells: PathHunter CHO-K1 EDG1 β-Arrestin cell line
Put plainly: S1P-1 β-Arrestin recruitment assay. The assay is classed as cell-based. The note with it: CHO-K1 EDG1 β-Arrestin cells, chemi-luminescence. The procedure:
S1P-1 β-Arrestin Recruitment Assay
β-Arrestin recruitment assays were carried out using the PathHunter CHO-K1 EDG1
β-Arrestin cell line (DiscoveRx Corporation) in a chemi-luminescence detection assay. This cell line stably expresses β-Arrestin 2 and S1P1 fused to complementing portions of β-galactosidase (‘EA’ and ‘pro-link’, respectively) which associate upon Arrestin recruitment to form functional β-galactosidase enzyme.
Cells were grown to 80% confluency in Growth Medium (F12 nutrient HAMS supplemented with 10% heat-inactivated USA FBS, 1% L-glutamax, 800 μg/ml Geneticin and 300 μg/ml Hygromycin). Cells were harvested from the flask using Enzyme Free Cell Dissociation Buffer (Gibco) and washed from flasks with Optimem solution (Gibco). Cells were then centrifuged at 1000 rpm for 2-3 min and resuspended in Assay Buffer (Prepared from Sigma kit H1387 supplemented with 20 ml/L HEPES, 4.7 ml/L NaHCO3, 0.1% pluronic acid F-68 solution, 0.1% BSA and adjusted to pH 7.4 using sodium hydroxide at 1×10^6 cells/ml. Cells were dispensed into assay plates containing compounds (100n1/well of a solution of test compound in 100% DMSO) at 1×10^4 cells/well and incubated at 37° C./5% CO2 for 90 min followed by 15 min at room temperature. 5 μl detection mix (1 part Galacton Star, 5 parts Emerald II, 19 parts Assay Buffer; DiscoveRx) were added per well and the plates incubated at room temperature for 60 min. Luminescence was quantified using a Viewlux plate reader.

T1 sequence (P21453 whole entry): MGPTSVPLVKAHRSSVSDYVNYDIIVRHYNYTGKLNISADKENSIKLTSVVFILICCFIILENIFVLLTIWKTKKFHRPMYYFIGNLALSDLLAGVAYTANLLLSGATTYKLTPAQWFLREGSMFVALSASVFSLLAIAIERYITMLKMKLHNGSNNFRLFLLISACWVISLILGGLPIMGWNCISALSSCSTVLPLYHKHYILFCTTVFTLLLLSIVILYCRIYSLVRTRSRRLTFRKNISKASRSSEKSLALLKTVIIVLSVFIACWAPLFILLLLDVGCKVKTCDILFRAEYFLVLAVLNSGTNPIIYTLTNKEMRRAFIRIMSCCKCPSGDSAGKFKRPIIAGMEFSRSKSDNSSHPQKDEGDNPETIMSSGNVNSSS
T2 sequence (P21453 whole entry): as above
T2 sequence (P32121 whole entry partner): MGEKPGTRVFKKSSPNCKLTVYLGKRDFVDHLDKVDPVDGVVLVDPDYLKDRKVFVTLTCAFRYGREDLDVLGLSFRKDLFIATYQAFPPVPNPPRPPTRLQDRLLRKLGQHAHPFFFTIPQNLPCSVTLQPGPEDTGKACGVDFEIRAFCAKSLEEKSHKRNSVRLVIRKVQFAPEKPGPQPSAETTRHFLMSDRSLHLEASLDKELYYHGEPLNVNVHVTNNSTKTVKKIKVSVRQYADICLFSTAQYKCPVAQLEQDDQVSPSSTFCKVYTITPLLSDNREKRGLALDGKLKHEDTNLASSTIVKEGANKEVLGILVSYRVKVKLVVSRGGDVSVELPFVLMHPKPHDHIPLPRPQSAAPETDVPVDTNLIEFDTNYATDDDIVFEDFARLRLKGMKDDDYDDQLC

What is called EC50 is the concentration that produces a half-maximal response. A low value points to greater potency. With `Cc1c(-c2noc(-c3ccc(OC(C)C)c(C#N)c3)n2)ccc2c1CCN(C[C@H](O)CO)CC2` [Example 153, 5-(3-{3-[(2S)-2,3-dihydroxypropyl]-6-methyl-2,3,4,5-tetrahydro-1H-3-benzazepin-7-yl}-1,2,4-oxadiazol-5-yl)-2-[(1-methylethyl)oxy]benzonitrile hydrochloride], the EC50 in assay [1] and in assay [2] was no more than 100 nM throughout.

`Cc1c(-c2noc(-c3ccc(OC(C)C)c(C#N)c3)n2)ccc2c1CCN(CC(=O)NC[C@H](C)O)CC2` [Example 148, 2-[7-(5-{3-cyano-4-[(1-methylethyl)oxy]phenyl}-1,2,4-oxadiazol-3-yl)-6-methyl-1,2,4,5-tetrahydro-3H-3-benzazepin-3-yl]-N-[(2S)-2-hydroxypropyl]acetamide]: the EC50 in assay [1] is no more than 100 nM; in assay [2], no more than 10 nM.

Take `CC(C)Oc1ccc(-c2nc(-c3ccc4c(c3)CCN(C[C@@H](O)CO)CC4)no2)cc1C#N` [Example 74, 5-(3-{3-[(2R)-2,3-dihydroxypropyl]-2,3,4,5-tetrahydro-1H-3-benzazepin-7-yl}-1,2,4-oxadiazol-5-yl)-2-[(1-methylethyl)oxy]benzonitrile]: the EC50 in assay [1] and in assay [2] was no more than 100 nM in each case.

In the case of `Cc1c(-c2noc(-c3ccc(OC(C)C)c(C#N)c3)n2)ccc2c1CCN(C(=O)CNCC(O)CO)CC2` (centres unmarked) [Example 187, 5-(3-{3-[N-(2,3-dihydroxypropyl)glycyl]-6-methyl-2,3,4,5-tetrahydro-1H-3-benzazepin-7-yl}-1,2,4-oxadiazol-5-yl)-2-[(1-methylethyl)oxy]benzonitrile], the EC50 in assay [1] was no more than 100 nM; in assay [2], no more than 10 nM.

Take `CC(C)Oc1ccc(-c2nc(-c3ccc4c(c3)CCN(CC(=O)N3CCOCC3)CC4)no2)cc1C#N` [Example 92, 2-[(1-methylethyl)oxy]-5-(3-{3-[2-(4-morpholinyl)-2-oxoethyl]-2,3,4,5-tetrahydro-1H-3-benzazepin-7-yl}-1,2,4-oxadiazol-5-yl)benzonitrile hydrochloride]: the EC50 is no more than 10 nM in assay [1] and no more than 100 nM in assay [2].

In the case of `CC(C)Oc1ccc(-c2nc(-c3ccc4c(c3)CCN(CC(=O)NC[C@H](O)CO)CC4)no2)cc1C#N` [Example 194, 2-[7-(5-{3-cyano-4-[(1-methylethyl)oxy]phenyl}-1,2,4-oxadiazol-3-yl)-1,2,4,5-tetrahydro-3H-3-benzazepin-3-yl]-N-[(2S)-2,3-dihydroxypropyl]acetamide hydrochloride], the EC50 was no more than 100 nM in assay [1] and no more than 10 nM in assay [2].

With `CC(C)Oc1ccc(-c2nc(-c3ccc4c(c3)CCN(CC(=O)NC[C@H](C)O)CC4)no2)cc1C#N` [Example 75, 2-[7-(5-{3-cyano-4-[(1-methylethyl)oxy]phenyl}-1,2,4-oxadiazol-3-yl)-1,2,4,5-tetrahydro-3H-3-benzazepin-3-yl]-N-[(2S)-2-hydroxypropyl]acetamide hydrochloride], the EC50 is no more than 100 nM in assay [1] and no more than 10 nM in assay [2].

Regarding `CC(C)Oc1ccc(-c2nc(-c3cccc4c3CCN(CC(O)CO)C4)no2)cc1C#N` (centres unmarked) [Example 76, 5-{3-[2-(2,3-dihydroxypropyl)-1,2,3,4-tetrahydro-5-isoquinolinyl]-1,2,4-oxadiazol-5-yl}-2-[(1-methylethyl)oxy]benzonitrile], the EC50 in assay [1] and in assay [2] was no more than 10 nM in each case.

With `CCNC(=O)CCCN1CCc2ccc(-c3noc(-c4ccc(OC(C)C)c(C#N)c4)n3)cc2CC1` [Example 44, 4-[7-(5-{3-cyano-4-[(1-methylethyl)oxy]phenyl}-1,2,4-oxadiazol-3-yl)-1,2,4,5-tetrahydro-3H-3-benzazepin-3-yl]-N-ethylbutanamide], the EC50 in assay [1] is no more than 100 nM; in assay [2] it was no more than 10 nM.

For the compound `CNC(=O)CCN1CCc2c(ccc(-c3noc(-c4ccc(OC(C)C)c(C#N)c4)n3)c2C)C1` [Example 43, 3-[6-(5-{3-cyano-4-[(1-methylethyl)oxy]phenyl}-1,2,4-oxadiazol-3-yl)-5-methyl-3,4-dihydro-2(1H)-isoquinolinyl]-N-methylpropanamide], the EC50 in assay [1] and in assay [2] was no more than 10 nM throughout.
